Values of other authors, collected in patent publication US5998407A, “Inhibitors of farnesyl-protein transferase” (Merck & Co., Inc., priority 1998, dated 1999).

Test system: farnesyl-protein transferase
Conditions: via inhibition of HMG-CoA reductase

SMILES	Indirect inhibition of farnesyl-protein transferase in vivo
CC[C@H](C)C(=O)O[C@H]1CCC=C2C=C[C@H](C)[C@H](CC[C@@H]3C[C@@H](O)CC(=O)O3)[C@H]21 [compactin]	Indirect inhibition of farnesyl-protein transferase in vivo has been demonstrated
CC[C@H](C)C(=O)O[C@H]1C[C@@H](C)C=C2C=C[C@H](C)[C@H](CC[C@@H]3C[C@@H](O)CC(=O)O3)[C@H]21 [lovastatin]	Indirect inhibition of farnesyl-protein transferase in vivo has been demonstrated
